According to patent US20110306606A1, “NOVEL 2,6-SUBSTITUTED-3-NITROPYRIDINE DERIVATIVE, METHOD FOR PREPARING SAME, AND PHARMACEUTICAL COMPOSITION INCLUDING SAME” (priority 2008, published 2011):
Like-named read-outs stand apart in the source and are kept apart here.

Columns and labels:
[1] = tested on: Osteoblasts (Calvarial cells); conditions: ICR, mouse, 72 h, 1 μM
Procedure: (§1) For the preparation of osteoblasts (Calvarial cells), the calvaria were aseptically dissected from 1 to 2-day-old neonatal ICR mice and subjected to continuous reaction with a 0.2% collagenase solution to separate osteoblasts. The cell-suspended supernatant was centrifuged to recover osteoblasts which were grown to full confluence in an α-MEM supplemented with 10% FBS and then diluted to a desired cell density for use in the experiment.
(§2) Cytotoxicity of the compounds of the present invention was evaluated by carrying out the experiment described below.
(§3) The vehicle control group was established to contain 0.2% DMSO. 100 μL/well of the diluted drugs were dispensed into 96-well plates to which osteoblasts (calvarial cells) prepared in Experimental Example 1 were then added at a density of 1.0×10^4 cells/100 μL/well. Here, the final compound concentration in the cell culture was 1 μM, and the vehicle control group contained 0.1% DMSO. The cells were cultured in a 5% CO2 inhibitor at 37° for 72 hours. 25 μL of 3-(4,5-dimethyl-2-thiazolyl)-2,5-diphenyl-2H-tetrazolium bromide (MTT) dissolved in PBS (2 mg/mL) was added to each cell culture 4 hours before the end of culture. After completion of the reaction, the plates were centrifuged, the media were discarded, and 100 μL of formazan was added and dissolved in dimethyl sulfoxide (DMSO). Finally, the absorbance of the developed plates was measured at 540 nm. The cell viability was expressed as % concentration in comparison with the vehicle control group.

[2] = tested on: Osteoblasts (Calvarial cells); assay: Cytotoxicity test (MTT); conditions: 1 μM compound, 72 hours, in comparison with vehicle control
Procedure: as §1, §2, §3

CNc1ccc([N+](=O)[O-])c(Nc2ccc(C)cc2)n1 [Compound 1, 2-(4-methylphenylamino)-6-(methylamino)-3-nitropyridine]
Cell viability (%) Calvarial cell [1]: 106%

Cc1ccc(Nc2nc(NC(C)C)ccc2[N+](=O)[O-])cc1 [Compound 2, 2-(4-methylphenylamino)-6-(isopropylamino)-3-nitropyridine]
Cell viability (%) Calvarial cell [1]: 104%

Cc1ccc(Nc2nc(NCC(C)C)ccc2[N+](=O)[O-])cc1 [Compound 3, 2-(4-methylphenylamino)-6-(isobutylamino)-3-nitropyridine]
Cell viability (%) Calvarial cell [1]: 102%

Cc1ccc(Nc2nc(N3CCC(O)CC3)ccc2[N+](=O)[O-])cc1 [Compound 5, 2-(4-methylphenylamino)-6-(4-hydroxypiperidino)-3-nitropyridine]
Cell viability (%) Calvarial cell [1]: 96%

Cc1ccc(Nc2nc(N3CCN(C)CC3)ccc2[N+](=O)[O-])cc1 [Compound 11, 2-(4-methylphenylamino)-6-(4-methylpiperazin-1-yl)-3-nitropyridine]
Cell viability (%) Calvarial cell [1]: 103%

CNc1ccc([N+](=O)[O-])c(Nc2ccc(OC)cc2)n1 [Compound 15, 2-(4-methoxyphenylamino)-6-(methylamino)-3-nitropyridine]
Cell viability (%) Calvarial cell [1]: 100%

COc1ccc(Nc2nc(NCC(C)C)ccc2[N+](=O)[O-])cc1 [Compound 17, 2-(4-methoxyphenylamino)-6-(isobutylamino)-3-nitropyridine]
Cell viability (%) Calvarial cell [1]: 96%

COc1ccc(Nc2nc(N3CCC(O)CC3)ccc2[N+](=O)[O-])cc1 [Compound 19, 2-(4-methoxyphenylamino)-6-(4-hydroxypiperidino)-3-nitropyridine]
Cell viability (%) Calvarial cell [1]: 94%

COc1ccc(Nc2nc(NC(C)(C)C)ccc2[N+](=O)[O-])cc1 [Compound 23, 2-(4-methoxyphenylamino)-6-(t-butylamino)-3-nitropyridine]
Cell viability (%) Calvarial cell [1]: 90%

COc1ccc(Nc2nc(N3CCN(C)CC3)ccc2[N+](=O)[O-])cc1 [Compound 26, 2-(4-methoxyphenylamino)-6-(4-methylpiperazin-1-yl)-3-nitropyridine]
Cell viability (%) Calvarial cell [1]: 90%

COc1ccc(Nc2nc(N3CCNCC3)ccc2[N+](=O)[O-])cc1 [Compound 27, 2-(4-methoxyphenylamino)-6-(piperazin-1-yl)-3-nitropyridine]
Cell viability (%) Calvarial cell [1]: 97%

COc1ccc(Nc2nc(N3CCOCC3)ccc2[N+](=O)[O-])cc1 [Compound 29, 2-(4-methoxyphenylamino)-6-morpholino-3-nitropyridine]
Cell viability (%) Calvarial cell [1]: 93%

CNc1ccc([N+](=O)[O-])c(Nc2ccc(C(C)(C)C)cc2)n1 [Compound 30, 2-[4-(t-butyl)phenylamino]-6-(methylamino)-3-nitropyridine]
Cell viability (%) Calvarial cell [1]: 90%

CC(C)CNc1ccc([N+](=O)[O-])c(Nc2ccc(C(C)(C)C)cc2)n1 [Compound 32, 2-[4-(t-butyl)phenylamino]-6-(isobutylamino)-3-nitropyridine]
Cell viability (%) Calvarial cell [1]: 91%

CC(C)(C)c1ccc(Nc2nc(N3CCC(O)CC3)ccc2[N+](=O)[O-])cc1 [Compound 34, 2-[4-(t-butyl)phenylamino]-6-(4-hydroxypiperidino)-3-nitropyridine]
Cell viability (%) Calvarial cell [1]: 97%

CC(C)c1nccn1-c1ccc([N+](=O)[O-])c(Nc2ccc(C(C)(C)C)cc2)n1 [Compound 36, 2-[4-(t-butyl)phenylamino]-6-[(2-isopropyl)imidazol-1-yl]-3-nitropyridine]
Cell viability (%) Calvarial cell [1]: 118%

CC(C)(C)c1ccc(Nc2nc(NCc3cccnc3)ccc2[N+](=O)[O-])cc1 [Compound 37, 2-[4-(t-butyl)phenylamino]-6-[(3-pyridyl)methylamino]-3-nitropyridine]
Cell viability (%) Calvarial cell [1]: 104%

CC(C)(C)c1ccc(Nc2nc(NCc3ccncc3)ccc2[N+](=O)[O-])cc1 [Compound 38, 2-[4-(t-butyl)phenylamino]-6-[(4-pyridyl)methylamino]-3-nitropyridine]
Cell viability (%) Calvarial cell [1]: 96%

CN1CCN(c2ccc([N+](=O)[O-])c(Nc3ccc(C(C)(C)C)cc3)n2)CC1 [Compound 41, 2-[4-(t-butyl)phenylamino]-6-(4-methylpiperazin-1-yl)-3-nitropyridine]
Cell viability (%) Calvarial cell [1]: 85%

CC(C)(C)c1ccc(Nc2nc(N3CCOCC3)ccc2[N+](=O)[O-])cc1 [Compound 44, 2-[4-(t-butyl)phenylamino]-6-morpholino-3-nitropyridine]
Cell viability (%) Calvarial cell [1]: 101%

CC(C)CNc1ccc([N+](=O)[O-])c(Nc2ccc(C#N)cc2)n1 [Compound 46, 2-(4-cyanophenylamino)-6-(isobutylamino)-3-nitropyridine]
Cell viability (%) Calvarial cell [1]: 100%

Nc1ccc(Nc2nc(N3CCC(O)CC3)ccc2[N+](=O)[O-])cc1 [Compound 61, 2-[4-(amino)phenylamino]-6-(4-hydroxypiperidino)-3-nitropyridine]
Cell viability (%) Calvarial cell [1]: 102%

Nc1ccc(Nc2nc(N3CCNCC3)ccc2[N+](=O)[O-])cc1 [Compound 62, 2-[4-(amino)phenylamino]-6-(piperazin-1-yl)-3-nitropyridine]
Cell viability (%) Calvarial cell [1]: 103%

CN1CCN(c2ccc([N+](=O)[O-])c(Nc3ccc(N)cc3)n2)CC1 [Compound 63, 2-[4-(amino)phenylamino]-6-(4-methylpiperazin-1-yl)-3-nitropyridine]
Cell viability (%) Calvarial cell [1]: 104%

Nc1ccc(Nc2nc(N3CCC(N)CC3)ccc2[N+](=O)[O-])cc1 [Compound 65, 2-[4-(amino)phenylamino]-6-(4-aminopiperidino)-3-nitropyridine]
Cell viability (%) Calvarial cell [1]: 102%

Nc1ccc(Nc2nc(NCCCn3ccnc3)ccc2[N+](=O)[O-])cc1 [Compound 67, 2-[4-(amino)phenylamino]-6-[(3-imidazol-1-yl)propylamino]-3-nitropyridine]
Cell viability (%) Calvarial cell [1]: 111%

CNc1ccc([N+](=O)[O-])c(Nc2cccc(N)c2)n1 [Compound 70, 2-[3-(amino)phenylamino]-6-(methylamino)-3-nitropyridine]
Cell viability (%) Calvarial cell [1]: 105%

CC(C)Nc1ccc([N+](=O)[O-])c(Nc2cccc(N)c2)n1 [Compound 71, 2-[3-(amino)phenylamino]-6-(isopropylamino)-3-nitropyridine]
Cell viability (%) Calvarial cell [1]: 114%

CC(C)CNc1ccc([N+](=O)[O-])c(Nc2cccc(N)c2)n1 [Compound 72, 2-[3-(amino)phenylamino]-6-(isobutylamino)-3-nitropyridine]
Cell viability (%) Calvarial cell [1]: 106%

CC(C)(C)Nc1ccc([N+](=O)[O-])c(Nc2cccc(N)c2)n1 [Compound 73, 2-[3-(amino)phenylamino]-6-(t-butylamino)-3-nitropyridine]
Cell viability (%) Calvarial cell [1]: 102%

Nc1cccc(Nc2nc(N3CCC(O)CC3)ccc2[N+](=O)[O-])c1 [Compound 74, 2-[3-(amino)phenylamino]-6-(4-hydroxypiperidino)-3-nitropyridine]
Cell viability (%) Calvarial cell [1]: 93%

CC(C)c1nccn1-c1ccc([N+](=O)[O-])c(Nc2cccc(N)c2)n1 [Compound 75, 2-[3-(amino)phenylamino]-6-[(2-isopropyl)imidazol-1-yl]-3-nitropyridine]
Cell viability (%) Calvarial cell [1]: 103%

Nc1cccc(Nc2nc(N3CCNCC3)ccc2[N+](=O)[O-])c1 [Compound 76, 2-[3-(amino)phenylamino]-6-(piperazin-1-yl)-3-nitropyridine]
Cell viability (%) Calvarial cell [1]: 102%

CN1CCN(c2ccc([N+](=O)[O-])c(Nc3cccc(N)c3)n2)CC1 [Compound 77, 2-[3-(amino)phenylamino]-6-(4-methylpiperazin-1-yl)-3-nitropyridine]
Cell viability (%) Calvarial cell [1]: 100%

Nc1cccc(Nc2nc(N3CCOCC3)ccc2[N+](=O)[O-])c1 [Compound 78, 2-[3-(amino)phenylamino]-6-morpholino-3-nitropyridine]
Cell viability (%) Calvarial cell [1]: 93%

Nc1cccc(Nc2nc(NCCCn3ccnc3)ccc2[N+](=O)[O-])c1 [Compound 82, 2-[3-(amino)phenylamino]-6-[(3-imidazol-1-yl)propylamino]-3-nitropyridine]
Cell viability (%) Calvarial cell [1]: 106%

Cc1nccn1-c1ccc([N+](=O)[O-])c(Nc2cccc(N)c2)n1 [Compound 85, 2-[3-(amino)phenylamino]-6-[(2-methyl)imidazol-1-yl]-3-nitropyridine]
Cell viability (%) Calvarial cell [1]: 101%

CC(C)CNc1ccc([N+](=O)[O-])c(Nc2ccc(-n3ccnc3)cc2)n1 [Compound 88, 2-[4-(imidazol-1-yl)phenylamino]-6-(isobutylamino)-3-nitropyridine]
Cell viability (%) Calvarial cell [1]: 96%

CC(=O)c1cccc(Nc2nc(NCC(C)C)ccc2[N+](=O)[O-])c1 [Compound 98, 2-(3-acetylphenylamino)-6-(isobutylamino)-3-nitropyridine]
Cell viability (%) Calvarial cell [1]: 92%

O=C(O)C1CCN(c2ccc(Nc3nc(NCc4ccncc4)ccc3[N+](=O)[O-])cc2F)CC1 [Compound 322, 2-{[3-fluoro-4-(4-carboxylicpiperidino)]phenylamino}-6-[(4-pyridyl)methylamino]-3-nitropyridine]
Cell viability (%) Calvarial cell [2]: 106%

O=C(O)C1CCN(c2ccc(Nc3nc(NCCCn4ccnc4)ccc3[N+](=O)[O-])cc2F)CC1 [Compound 323, 2-{[3-fluoro-4-(4-carboxylicpiperidino)]phenylamino}-6-[(3-imidazol-1-yl)propylamino]-3-nitropyridine]
Cell viability (%) Calvarial cell [2]: 105%

O=C(O)C1CCN(c2ccc(Nc3nc(NCCN4CCOCC4)ccc3[N+](=O)[O-])cc2F)CC1 [Compound 324, 2-{[3-fluoro-4-(4-carboxylicpiperidino)]phenylamino}-6-[2-(morpholin-1-yl)ethylamino]-3-nitropyridine]
Cell viability (%) Calvarial cell [2]: 82%

O=C(O)C1CCN(c2ccc(Nc3nc(NCCCN4CCOCC4)ccc3[N+](=O)[O-])cc2F)CC1 [Compound 325, 2-{[3-fluoro-4-(4-carboxylicpiperidino)]phenylamino}-6-[(3-morpholin-1-yl)propylamino]-3-nitropyridine]
Cell viability (%) Calvarial cell [2]: 106%
